Assay results as given in patent US20110020359A1, “METHODS AND COMPOSITIONS FOR TREATING NEURONAL DAMAGE OR DEGENERATION” (California Institute of Technology, priority 2009, published 2011).

B1: OMgp: oligodendrocyte myelin protein (OMgp) (protein, UniProt P23515 25-417, looked up)
Oligodendrocyte-myelin …: ICPLQCICTERHRHVDCSGRNLSTLPSGLQENIIHLNLSYNHFTDLHNQLTQYTNLRTLDISNNRLESLPAHLPRSLWNMSAANNNIKLLDKSDTAYQWNLKYLDVSKNMLEKVVLIKNTLRSLEVLNLSSNKLWTVPTNMPSKLHIVDLSNNSLTQILPGTLINLTNLTHLYLHNNKFTFIPDQSFDQLFQLQEITLYNNRWSCDHKQNITYLLKWMMETKAHVIGTPCSTQISSLKEHNMYPTPSGFTSSLFTVSGMQTVDTINSLSVVTQPKVTKIPKQYRTKETTFGATLSKDTTFTSTDKAFVPYPEDTSTETINSHEAAAATLTIHLQDGMVTNTSLTSSTKSSPTPMTLSITSGMPNNFSEMPQQSTTLNLWREETTTNVKTPLPS

How the values were obtained:
[1] = tested on: Retinal ganglion cell axons; assay: Optic nerve regeneration assay; settings: counted at 125-μm intervals from the crush site
Method: At 1-14 days post injury, mice are given an overdose of pentobarbital and are transcardially perfused with 4% PFA. Eyeballs still attached with the optic nerve are dissected and post-fixed in 4% PFA overnight. Following cryoprotection with 30% sucrose in PBS, tissues are embedded in O.C.T. and serial sectioned for 5-20 μm along the longitudinal direction of the nerve. For immunofluorescence labeling, the sections are washed with PBS, pre-incubated in a blocking buffer (approximately 1% BSA, 0.3%TX-100 in PBS) and followed by sequential incubations with primary antibodies, including mouse anti-CS-E (1:200), goat-anti-CTB (1:4000), or rabbit anti-IβIII-tubulin antibodies (Invitrogen). […] The retinal cryosections are mounted with Vectashield and visualized under a Nikon fluorescence microscope. To quantify the number of CTB-positive regenerating axons, the number of regenerating axons is counted at 125 μm stepwise from the crush site of the optic nerve. The total number of regenerating axons is estimated. To quantify the number of surviving retinal ganglion cells, the total number of βIII-tubulin positive cells is counted in at least 3 retinal sections per retina.
(1.7 mg/ml) antibody treatment placed around the crush site of the nerve are studied. […] The extent of axonal regrowth is assessed 2 weeks after injury.

[2] = tested on: dissociated rat P5-9 CGN cultures; assay: Cerebellar granule neuron (CGN) neurite outgrowth assay; type: cell-based; settings: P7 rat CGNs
Method: Nitric acid-treated, 15-mm round German glass coverslips are coated with P-Orn in pH 6-8.5 borate buffer (at approximately 50 μg/ml) for about 1 hr at 37° C. and 5% CO2. CSPGs (at approximately 1 μg/ml) or polysaccharides enriched in the CS-A, CS-C, or CS-E sulfation motifs (at approximately 1 μg/ml) are coated on the P-Orn-coated coverslips overnight at 37° C. and 5% CO2. Cerebella from P5-9 Sprague Dawley rats are dissected, purified as described above, and cultured on the coated coverslips at a cell density of about 200 cells/mm^2. Neurons are grown in DMEM/F12, 1% FBS, and N1 supplement for about 24 hr.
In one example, inhibitors against MEK (PD98059, 25 μM; Calbiochem), EGFR (AG1478, 15 nM; Calbiochem), ROCK (Y27632, 5 μM; Calbiochem) and JNK (JNK Inhibitor II, 10 μM; Calbiochem) are added in solution at the start of culturing, and neurons are grown for 24 hr. For neurite outgrowth experiments from p75 knockout mice, cerebella from P5-7 mice, either C57BL/6 wild-type or p75−/− knockout mice, are dissected and purified as described above. Neurons are plated at a density of 200-300 cells/mm2 and cultured for about 24 hr. Cells are then fixed in 4% PFA/10% sucrose, immunostained with neuronal specific anti-class III β-tubulin antibody (TUJ1; Covance), and evaluated for neurite outgrowth. Neurons are imaged using a Nikon TE2000-S fluorescent microscope and quantified using the NIH software Image J. Statistical analysis is performed using the one-way ANOVA; n=50-200 cells per experiment.
P7 rat CGNs are grown for 24 hours on CS-E (1 μg/ml) in the presence of the CS-E antibody (CS-E Ab; 10 μg/ml).

[3] = Oligosaccharide microarray; type: binding
Method: Ozonolysis of the anomeric allyl group and linkage of CS compounds 1-41,2 to 1,2-(bisaminooxy)ethane3 proceeds as follows: oligosaccharide (0.51 μmol) is dissolved in MeOH (500 μL) and cooled to −78° C. O3 is bubbled through the reaction until a blue color persists (1 min). The reaction is then purged with N2 until colorless, quenched with Ph3P beads (3 mg), and gradually warmed to rt over 12 h. The reaction is filtered and the product concentrated to afford the desired aldehyde as a white solid. The aldehyde (0.51 μmol) is then reacted for 14 h at rt with 1,2-(bisaminooxy)ethane hydrochloride (1.4 mg, 15 μmol) that has been dissolved in H2O (100 μL) and pH adjusted to 5.0 with 1 M NaOH. The resulting oxime product is purified using a SepPak C18 column (500 mg, H2O) and Sephadex G-10 (CS-E disaccharide, H2O) or Sephadex G-25 (tetrasaccharides, H2O) to afford a white solid in quantitative yield (0.51 μmol). CS-A aminooxy: ESI MS: m/z: calculated for C32H48N4Na3O31S2: 1117.1; found 1117.0. CS-C aminooxy: ESI MS: m/z: calculated for C32H48N4Na3O31S2: 1117.1; found 1117.0. CS-E aminooxy: ESI MS: m/z: calculated for C32H46N4Na5O37S4: 1321.0; found 1321.0. CS-E di amminooxy: ESI MS: m/z: calculated for C18H28N3Na2O20S2: 716.1; found 716.0. […]

Row | Molecule | number of regenerating axons compared with control IgG [1] | inhibition of neurite outgrowth after digestion of CS-E polysaccharides [2] | binding to CS-E polysaccharides, oligosaccharide microarray [3]
1 | chondroitinaseABC | significantly more regenerating axons | small extent of residual inhibition | 
2 | B1 |  |  | bind to CS-E polysaccharides
